Among the data in ChEMBL document CHEMBL1141965, “Preparation of human Melanocortin-4 receptor agonist libraries: linear peptides X-Y-DPhe7-Arg8-Trp(or 2-Nal)9-Z-NH2” (Bioorg Med Chem Lett, 2005) are Activity and EC50 values, retold here.

For assay [1], the target named is T1, Melanocyte-stimulating hormone receptor (Homo sapiens, UniProt Q01726). In words: Agonist activity at human MC1R at 10 uM. It is filed as functional.
Target sequence in this assay (Q01726 whole entry, looked up): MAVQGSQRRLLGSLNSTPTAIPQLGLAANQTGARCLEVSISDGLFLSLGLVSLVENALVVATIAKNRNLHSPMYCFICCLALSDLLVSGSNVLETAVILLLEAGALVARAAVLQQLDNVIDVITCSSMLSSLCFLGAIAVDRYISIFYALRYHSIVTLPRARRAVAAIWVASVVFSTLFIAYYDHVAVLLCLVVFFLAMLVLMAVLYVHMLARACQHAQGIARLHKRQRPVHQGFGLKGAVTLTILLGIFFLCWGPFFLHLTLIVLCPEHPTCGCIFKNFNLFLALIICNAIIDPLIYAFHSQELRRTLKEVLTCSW
Assay [2] deals with T2, Melanocortin receptor 4 (Homo sapiens, UniProt P32245). In words: Agonist activity at human MC4R at 100 nM. It is filed as functional.
T2 sequence (P32245 whole entry): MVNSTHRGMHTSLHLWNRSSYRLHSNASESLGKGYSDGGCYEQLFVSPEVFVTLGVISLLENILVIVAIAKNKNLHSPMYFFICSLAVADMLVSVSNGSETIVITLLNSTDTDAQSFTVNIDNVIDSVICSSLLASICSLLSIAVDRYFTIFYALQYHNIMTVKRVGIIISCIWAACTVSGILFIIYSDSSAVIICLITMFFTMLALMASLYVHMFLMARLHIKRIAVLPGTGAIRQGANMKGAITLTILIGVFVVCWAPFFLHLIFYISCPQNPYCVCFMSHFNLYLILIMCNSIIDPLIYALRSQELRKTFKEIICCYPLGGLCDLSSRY
The target in assay [3] is T1, Melanocyte-stimulating hormone receptor. In words: Agonist activity at human MC1R at 100 nM. It is filed as functional.
Target sequence in this assay (Q01726 whole entry, looked up): as the sequence (Q01726 whole entry, looked up) above
The target of assay [4] is T2, Melanocortin receptor 4. In words: Agonist activity in HEK293 cells transfected with human MC4R by cAMP accumulation. Format: functional, cell-based.
The target of assay [5] is T1, Melanocyte-stimulating hormone receptor. In words: Agonist activity in HEK293 cells transfected with human MC1R by cAMP accumulation. Format: functional, cell-based.
Target sequence in this assay (Q01726 whole entry): as the sequence (Q01726 whole entry, looked up) above
Assay [6] has the same target. Nature of the assay: Agonist activity at human MC1R at 50 uM. It is filed as functional.
Target sequence in this assay (Q01726 whole entry, looked up): as above

On to `CCCC(=O)N[C@]1(C(=O)N[C@H](Cc2ccccc2)C(=O)N[C@@H](CCCN=C(N)N)C(=O)NC(Cc2ccc3ccccc3c2)C(=O)NCc2cccc(C(N)=O)c2)CC[C@H](c2ccccc2)CC1` (some centres undefined), for which the Activity in assay [1] was 25%; on Melanocortin receptor 4 [2] it was over 30%.

With `CCCC(=O)NC1(C(=O)N[C@H](Cc2ccccc2)C(=O)N[C@@H](CCCN=C(N)N)C(=O)NC(Cc2ccc3ccccc3c2)C(=O)NCCC(N)=O)CCc2c(Br)cccc2C1` (some centres undefined), the Activity is 32% at Melanocortin receptor 4 [2] and 40% in assay [3].

As for `CCCC(=O)N[C@]1(C(=O)N[C@H](Cc2ccccc2)C(=O)N[C@@H](CCCN=C(N)N)C(=O)NC(Cc2ccc3ccccc3c2)C(=O)N[C@@H](C)C(N)=O)CC[C@H](c2ccccc2)CC1` (some centres undefined), at Melanocortin receptor 4 [4] (hek293), the EC50 came out at 220 nM. The Activity is 25% in assay [1] and over 30% on Melanocortin receptor 4 [2].

At Melanocortin receptor 4 [4], `CCCC(=O)N[C@]1(C(=O)N[C@H](Cc2ccccc2)C(=O)N[C@@H](CCCN=C(N)N)C(=O)N[C@@H](Cc2ccc3ccccc3c2)C(=O)NCC(N)=O)CC[C@H](c2ccccc2)CC1` gave a concentration for a half-maximal effect (EC50) of 44 nM. For the same compound, the Activity was 25% in assay [1] and over 30% on Melanocortin receptor 4 [2].

For `CCCCC(=O)NC1(C(=O)N[C@H](Cc2ccccc2)C(=O)N[C@@H](CCCN=C(N)N)C(=O)N[C@@H](Cc2ccc3ccccc3c2)C(=O)NCC(N)=O)CCc2c(Br)cccc2C1` (some centres undefined), the half-maximal effective concentration (EC50) on Melanocortin receptor 4 [4] stood at 200 nM; in assay [5], 2900 nM.

Turning to `CCCC(=O)N[C@]1(C(=O)N[C@H](Cc2ccccc2)C(=O)N[C@@H](CCCN=C(N)N)C(=O)NC(Cc2ccc3ccccc3c2)C(=O)Nc2ccccc2C(N)=O)CC[C@H](c2ccccc2)CC1` (some centres undefined), the figures for the Activity (in assay [1]; at Melanocortin receptor 4 [2]) were 50% and over 30%, respectively.

As to `CCCC(=O)NC1(C(=O)N[C@H](Cc2ccccc2)C(=O)N[C@@H](CCCN=C(N)N)C(=O)NC(Cc2ccc3ccccc3c2)C(=O)NCC(N)=O)CCc2c(Br)cccc2C1` (some centres undefined), the Activity on Melanocortin receptor 4 [2] was determined as 30%; in assay [3] it was 26%.

Consider `CCCC(=O)N[C@]1(C(=O)N[C@H](Cc2ccccc2)C(=O)N[C@@H](CCCN=C(N)N)C(=O)NC(Cc2ccc3ccccc3c2)C(=O)NCc2ccc(C(N)=O)cc2)CC[C@H](c2ccccc2)CC1` (some centres undefined), for which the Activity is 15% in assay [6] and over 30% at Melanocortin receptor 4 [2].

With `CCCC(=O)NC1(C(=O)N[C@H](Cc2ccccc2)C(=O)N[C@@H](CCCN=C(N)N)C(=O)NC(Cc2ccc3ccccc3c2)C(=O)Nc2ccccc2C(N)=O)CCc2c(Br)cccc2C1` (some centres undefined), the Activity in assay [6] is 60%; at Melanocortin receptor 4 [2], over 30%.

For the compound `CCCC(=O)N[C@]1(C(=O)N[C@H](Cc2ccccc2)C(=O)N[C@@H](CCCN=C(N)N)C(=O)NC(Cc2ccc3ccccc3c2)C(=O)NCCC(N)=O)CC[C@H](c2ccccc2)CC1` (some centres undefined), the values for the Activity (in assay [1]; at Melanocortin receptor 4 [2]) were 25% and over 30%, respectively.

At Melanocortin receptor 4 [4], `CCCC(=O)N[C@]1(C(=O)N[C@H](Cc2ccccc2)C(=O)N[C@@H](CCCN=C(N)N)C(=O)N[C@@H](Cc2c[nH]c3ccccc23)C(=O)NCc2cccc(C(N)=O)c2)CC[C@H](c2ccccc2)CC1` displayed an EC50 of 2 nM. In assay [6], this compound gave an Activity of 50%.

Broadly, the EC50 is the concentration giving half of the maximal effect. A low value points to higher potency in that assay.
